Reference: PubChem BioAssay (NCI)
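A five-concentration, 48-hour dose response in 96-well plates underlies each endpoint, interpolated linearly between surrounding concentrations. Here, GI50 denotes the concentration required for 50% inhibition of growth. TGI: concentration producing complete growth inhibition.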

Tests used:
Assay in all cases: NCI tumour cell line growth inhibition, 48 h
CCRF-CEM leukemia = system: CCRF-CEM leukemia
COLO 205 colon = system: COLO 205 colon
EKVX NSCLC = system: EKVX NSCLC
M14 melanoma = system: M14 melanoma
NCI-H522 lung = system: NCI-H522 lung
NCI/ADR-RES ovarian = system: NCI/ADR-RES ovarian
RPMI-8226 leukemia = system: RPMI-8226 leukemia
SK-MEL-5 melanoma = system: SK-MEL-5 melanoma
SK-OV-3 ovarian = system: SK-OV-3 ovarian
SNB-75 CNS = system: SNB-75 CNS
SW-620 colon = system: SW-620 colon
TK-10 renal = system: TK-10 renal
NCI-H460 lung = system: NCI-H460 lung
A498 renal = system: A498 renal

| Structure (SMILES) | TGI (CCRF-CEM leukemia) | TGI (COLO 205 colon) | TGI (EKVX NSCLC) | TGI (M14 melanoma) | TGI (NCI-H522 lung) | TGI (NCI/ADR-RES ovarian) | TGI (RPMI-8226 leukemia) | TGI (SK-MEL-5 melanoma) | TGI (SK-OV-3 ovarian) | TGI (SNB-75 CNS) | TGI (SW-620 colon) | TGI (TK-10 renal) | GI50 (M14 melanoma) | GI50 (NCI-H522 lung) | GI50 (NCI/ADR-RES ovarian) | GI50 (RPMI-8226 leukemia) | GI50 (SK-MEL-5 melanoma) | GI50 (TK-10 renal) | TGI (NCI-H460 lung) | TGI (A498 renal) |
| --- | --- | --- | --- | --- | --- | --- | --- | --- | --- | --- | --- | --- | --- | --- | --- | --- | --- | --- | --- | --- |
| [N-]=[N+]=Nc1cc(=O)n(-c2ccccc2)c(=O)n1-c1ccccc1 | > 100 µM | > 100 µM | > 100 µM | > 100 µM | > 100 µM | > 100 µM | > 100 µM | > 100 µM | > 100 µM | > 100 µM | > 100 µM | > 100 µM | – | – | – | – | – | – | – | – |
| CO[C@H]1C[C@@H]2CC[C@@H](C)[C@@](O)(O2)C(=O)C(=O)N2CCCC[C@H]2C(=O)O[C@H]([C@H](C)C[C@@H]2CC[C@@H](OC(=O)C(C)(CO)CO)[C@H](OC)C2)CC(=O)[C@H](C)/C=C(\C)[C@@H](O)[C@@H](OC)C(=O)[C@H](C)C[C@H](C)/C=C/C=C/C=C/1C | – | > 60.4 µM | > 52.2 µM | > 100 µM | > 49.6 µM | 72.5 µM | > 29.3 µM | > 100 µM | > 100 µM | 24.4 µM | > 100 µM | – | 16 µM | 0.121 µM | 1.01 µM | < 0.0247 µM | 1.87 µM | 0.359 µM | – | – |
| CC(C)C1=CC(=O)C(C)(C2=NC(C)(C)CO2)c2ccccc21 (stereo not drawn) | > 100 µM | > 100 µM | > 100 µM | > 100 µM | > 100 µM | – | > 100 µM | > 100 µM | > 100 µM | > 100 µM | > 100 µM | > 100 µM | – | – | – | – | – | – | > 100 µM | – |
| CCCCC1(OC(=O)CCC(=O)O)CCC2(CCC(C)C(C/C=C(C)/C=C/C(O)C(C)/C=C/C(=O)O)O2)OC1CC/C(C)=C/C(=O)O (stereo not drawn) | 27.4 µM | 35.1 µM | 25.7 µM | 4.52 µM | 7.72 µM | – | > 37.3 µM | 3.14 µM | 25.4 µM | 6.74 µM | 39.8 µM | 58.5 µM | – | – | – | – | – | – | 18.4 µM | 12.6 µM |
| N=c1oc2cc(O)c(O)cc2cc1C(N)=O | > 100 µM | > 100 µM | > 100 µM | > 100 µM | > 100 µM | – | > 100 µM | > 100 µM | > 100 µM | 96.3 µM | > 100 µM | > 100 µM | – | – | – | – | – | – | > 100 µM | > 100 µM |
| NC(=S)Nc1nnc(-c2ccc(-c3nnc(NC(N)=S)o3)cc2)o1 | > 100 µM | > 100 µM | > 100 µM | > 100 µM | > 100 µM | – | > 100 µM | > 100 µM | > 100 µM | > 100 µM | > 100 µM | > 100 µM | – | – | – | – | – | – | > 100 µM | > 100 µM |
| COc1cc(/C=C2\CCC(C)c3c2nc(N)c(C#N)c3-c2cc(OC)c(OC)c(OC)c2)cc(OC)c1OC (stereo not drawn) | > 100 µM | – | > 100 µM | > 100 µM | – | – | > 100 µM | > 100 µM | > 100 µM | 15 µM | > 100 µM | > 100 µM | – | – | – | – | – | – | – | > 100 µM |
| Cc1cccc(NC(=O)CSc2nnc(Cc3ccccc3)o2)c1 | > 100 µM | > 100 µM | > 100 µM | > 100 µM | > 100 µM | – | – | > 100 µM | > 100 µM | > 100 µM | > 100 µM | > 100 µM | – | – | – | – | – | – | > 100 µM | > 100 µM |
| O=C(CSc1nnc(-c2ccc(N=Cc3ccc(Cl)cc3)cc2)o1)Nc1ccccc1 | > 100 µM | > 100 µM | > 100 µM | > 100 µM | 35.5 µM | – | > 100 µM | > 100 µM | > 100 µM | > 100 µM | > 100 µM | > 100 µM | – | – | – | – | – | – | > 100 µM | – |
| C1=Cc2nc1c(-c1ccccc1)c1ccc([n-]1)c(-c1ccccc1)c1nc(c(-c3ccccc3)c3ccc([n-]3)c2-c2ccccc2)C=C1.[Zn+2] | > 100 µM | > 100 µM | > 100 µM | > 100 µM | > 100 µM | – | > 100 µM | > 100 µM | > 100 µM | > 100 µM | > 100 µM | > 100 µM | – | – | – | – | – | – | > 100 µM | – |
| CC(C)(C)c1cc(N=NC(=S)NCc2ccccc2)cc(C(C)(C)C)c1O | > 100 µM | > 100 µM | > 100 µM | > 100 µM | – | – | > 100 µM | > 100 µM | – | 99.6 µM | > 100 µM | > 100 µM | – | – | – | – | – | – | > 100 µM | > 100 µM |
| Cc1nc(Nc2ccccc2)sc1C(=O)NNC(N)=O | > 100 µM | > 100 µM | > 100 µM | > 100 µM | > 100 µM | – | > 100 µM | > 100 µM | > 100 µM | 80.7 µM | > 100 µM | > 100 µM | – | – | – | – | – | – | > 100 µM | > 100 µM |
| CN(C)c1cccc(-c2cc(=O)c3cc4c(cc3[nH]2)OCO4)c1 | > 100 µM | 0.823 µM | > 100 µM | 0.461 µM | 0.275 µM | – | > 100 µM | 2.83 µM | 0.932 µM | – | > 100 µM | > 100 µM | – | – | – | – | – | – | 0.987 µM | 4.58 µM |
| O=C(/C=C(\O)C(=O)O)/C=C(\O)c1ccccc1Cl | > 100 µM | > 100 µM | > 100 µM | > 100 µM | > 100 µM | – | > 100 µM | > 100 µM | > 100 µM | > 100 µM | > 100 µM | > 100 µM | – | – | – | – | – | – | > 100 µM | > 100 µM |
| O=C(n1[nH]c(=O)n(-c2ccc([N+](=O)[O-])cc2)c1=O)C(Cl)(Cl)Cl | – | > 75 µM | > 75 µM | > 75 µM | > 75 µM | > 75 µM | > 75 µM | > 75 µM | > 75 µM | > 75 µM | > 75 µM | > 75 µM | – | – | – | – | – | – | > 75 µM | – |
| Cc1ccc2nc(CN3CCCCC3)cc(=O)n2c1 | > 100 µM | > 100 µM | > 100 µM | > 100 µM | > 100 µM | > 100 µM | > 100 µM | – | > 100 µM | > 100 µM | > 100 µM | > 100 µM | – | – | – | – | – | – | > 100 µM | – |
